Here are results for 6 molecules from patent publication US9989532B2, “Methods and compositions for detecting coagulation inhibitors” (The University of North Carolina at Chapel Hill, priority 2013, dated 2018).

In one data set the target is T1, thrombin (Homo sapiens, UniProt P00734).
T1 construct: Thrombin (factor IIa) was purchased from Haematologic Technologies; purchased Haematologic Technologies
In words: substrate cleavage by thrombin in presence of sample. Conditions: substance in sample; substrate methoxycarbonyl-D-cyclohexylalanyl-glycyl-arginine-para-nitroaniline. Type of data set: biochemical. Here is the method:
(§1) Substrate cleavage in the presence of test sample is measured for all four test conditions.
(§2) There are any number of substrates for thrombin and factor Xa and other proteases as described herein that can be used in the methods of this invention. In some embodiments, the substrate is a chromogenic substrate, which can be a para-nitroanalide synthetic substrate. Non-limiting examples of a chromogenic substrate of this invention include tosyl-glycyl-prolyl-arginine para-nitroanilide, H-D-cyclohexylglycyl-alanyl-arginine para-nitroanilide, H-beta-alanyl-glycyl-arginine para-nitroanilide, H-D-cyclohexylalanyl-alanyl-arginine para-nitroanilide, H-D-phenylalanyl-pipecolyl-arginine para-nitroanilide, H-D-(carbobenzoyl)lysyl-prolyl-arginine para-nitroanilide, H-beta-alanyl-glycyl-arginine 7-amino-4-methylcoumarin, H-D-cyclohexylglycyl-alanyl-arginine 7-amino-4-methylcoumarin, H-D-(carbobenzoyl)lysyl-prolyl-arginine 7-amino-4-methylcoumarin, methoxycarbonyl-D-cyclohexylalanyl-glycyl-arginine para-nitroanilide, methoxycarbonyl-D-cyclohexylglycyl-glycyl-arginine para-nitroanilide, benzoyloxycarbonyl-D-arginyl-glycyl-arginine para-nitroanilide, benzoyl-isoleucyl-glutamyl-glycyl-arginine para-nitroanilide, methylsulfonyl-D-cyclohexylalanyl-glycyl-arginine 7-amino-4-methylcoumarin, and methoxycarbonyl-D-cyclohexylalanyl-glycyl-arginine 7-amino-4-methylcoumarin.
(§3) Thrombin (factor IIa) was purchased from Haematologic Technologies. Factor Xa was purchased from Enzyme Research Labs.

In the next data set the target is T2, a2M-thrombin (a2M-IIa) (Homo sapiens, UniProt P00734).
T2 construct: Thrombin (factor IIa) was purchased from Haematologic Technologies; host or cells: no expression host: complex formed in vitro from purchased thrombin and a2M purified from human plasma, then purified on Q-Sepharose
In words: substrate cleavage by a2M-IIa (thrombin caged in alpha-2-macroglobulin). Type of data set: biochemical. Conditions: for cleavage of the substrate, (b) a2M-thrombin (a2M-IIa): substance in sample, substrate methoxycarbonyl-D-cyclohexylalanyl-glycyl-arginine-para-nitroaniline. The method, then: as §1, §2
(§4) 0.5 mM of para-nitroanilide synthetic substrate (Pefachrome FXa) was added and the rate of substrate cleavage determined by appearance of yellow color characteristic of the cleaved substrate. Pefachrome FXa is also effective as a substrate for thrombin.
Purified a2M-IIa was eluted from the column with 1M sodium chloride in 20 mM HEPES (pH 7.4).
(§5) The rates of substrate cleavage were converted to concentrations using measured Km and kcat values determined as previously described (Joost et al. “Inhibition of human blood coagulation factor Xa by alpha-2-macroglobulin” Biochemistry 26:5932-5937 (1987) doi: 10.1021/bi00392a053) (FIGS. 1-5).

For a further data set, the target named is T3, factor Xa (Homo sapiens, UniProt P00742).
T3 construct: Factor Xa was purchased from Enzyme Research Labs; purchased Enzyme Research Labs
The data set is described as follows: substrate cleavage by factor Xa in presence of sample. Type of data set: biochemical. Conditions: substance in sample; substrate methoxycarbonyl-D-cyclohexylalanyl-glycyl-arginine-para-nitroaniline. The method, then: as §1, §2, §3

In data set [1] the target is T4, a2M-Xa (Homo sapiens, UniProt P00742). The data set is described as follows: substrate cleavage by a2M-Xa (factor Xa caged in alpha-2-macroglobulin). Type of data set: biochemical. Also noted: Factor Xa was purchased from Enzyme Research Labs; host or cells: no expression host: complex formed in vitro from purchased factor Xa and a2M purified from human plasma, then purified on heparin Sepharose and Q-Sepharose. Conditions: for cleavage of the substrate, (d) a2M-Xa: substance in sample, substrate methoxycarbonyl-D-cyclohexylalanyl-glycyl-arginine-para-nitroaniline. The method, then: as §1, §2, §4, §5

For data set [2] the following is noted: cited from earlier work; for time to peak plasma concentration: after oral ingestion.
The next data set has as its system mice. In words: saphenous vein injury bleeding time in mice. Type of data set: in vivo. Conditions: FIG. 6, normal mouse.
The next data set relates to a2M-IIa. In words: a2M-IIa substrate cleavage test on plasma of fed mice. The method, then: (§6) Mice were fed Xarelto or Pradaxa or regular chow. Plasma from the animals was analyzed for the presence of dabigatran (active metabolite of Pradaxa) or rivaroxaban (active component of Xarelto). […] 0.5 mM of para-nitroanilide synthetic substrate (Pefachrome FXa) was added and substrate cleavage was determined by appearance of yellow color characteristic of the cleaved substrate.

The conditions of data set [3]: cited from earlier work.
The target of data set [4] is T4, a2M-Xa. Conditions: substance in plasma of mice fed Pradaxa or Xarelto. The method, then:
as §6

For data set [5] the following is noted: assumed, based on estimates from Gnoth et al. and Weinz et al.; cited from earlier work.

T3 sequence (P00742 235-488 limits assumed): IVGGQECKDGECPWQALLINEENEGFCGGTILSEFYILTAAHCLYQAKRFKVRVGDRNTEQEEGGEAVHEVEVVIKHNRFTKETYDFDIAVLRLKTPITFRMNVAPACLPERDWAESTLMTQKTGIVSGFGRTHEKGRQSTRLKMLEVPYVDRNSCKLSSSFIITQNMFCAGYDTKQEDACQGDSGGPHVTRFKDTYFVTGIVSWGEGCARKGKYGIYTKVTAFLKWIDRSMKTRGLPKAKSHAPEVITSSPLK
T3 sequence (P00742 41-179 limits assumed): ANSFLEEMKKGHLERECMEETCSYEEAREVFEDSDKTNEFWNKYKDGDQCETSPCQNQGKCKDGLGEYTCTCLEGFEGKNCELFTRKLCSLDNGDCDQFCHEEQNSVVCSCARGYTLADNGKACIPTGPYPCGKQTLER

For the molecule `CC(=O)CC(c1ccccc1)c1c(O)c2ccccc2oc1=O` (stereo not drawn) [Warfarin], the “cleavage of the substrate, (a) Thrombin” value on thrombin is “Cleavage”. For the same molecule, the “cleavage of the substrate, (b) a2M-thrombin (a2M-IIa)” value (“cleavage of the substrate … (a2M-IIa)” below) at a2M-thrombin (a2M-IIa) is listed as “Cleavage”. Moreover, on factor Xa, the “cleavage of the substrate, (c) Factor Xa” value is “Cleavage”. Moreover, the “cleavage of the substrate, (d) a2M-Xa” value at a2M-Xa [1] was “Cleavage”.
Take `COc1ccc(-n2nc(C(N)=O)c3c2C(=O)N(c2ccc(N4CCCCC4=O)cc2)CC3)cc1` [apixaban]: in data set [2] (in vivo), the “eliminated by the kidneys” value is reported as 25% and the metabolism entry is reported as “metabolized in part by CYP3A4”. Moreover, the oral bioavailability entry in data set [2] was “more than 50%”.
As for `[H]/N=C(/N)c1ccc(NCc2nc3cc(C(=O)N(CCC(=O)O)c4ccccn4)ccc3n2C)cc1` [dabigatran], the “time for saphenous vein injury to stop bleeding” value with mice (7 μg/kg dabigatran alone) is reported as “more than 2 minutes”. In addition, in the data set with a2M-IIa (mice fed Pradaxa, animals 7-12), the “presence of Dabigatran in plasma” value is “yes”. The “presence of Dabigatran in plasma” value in the data set with a2M-IIa (mice fed Xarelto, animals 1-6) is on record as “no”. For the same molecule, in [2], the “time to peak plasma concentration” value is given as “approximately 1.5 hours” and the oral bioavailability is reported as 7.2%. The peak plasma level in [2] (healthy human volunteers) is reported as 150 ng/mL. Further, the route of excretion result in data set [2] (oral treatment) is reported as “predominantly excreted in the feces”. Besides, in data set [3], the “bound to plasma proteins” value is on record as 35%.
In the case of `O=C(NC[C@H]1CN(c2ccc(N3CCOCC3=O)cc2)C(=O)O1)c1ccc(Cl)s1` [rivaroxaban], the “cleavage of the substrate, (a) Thrombin” value on thrombin is given as “Cleavage”. The “effect on substrate cleavage by purified a2M-IIa” value on a2M-thrombin (a2M-IIa) (FIG. 1, buffer pH 7.4, 5 minutes incubation, 0.5 mM Pefachrome FXa) is recorded as “did not block substrate cleavage”. Besides, on a2M-thrombin (a2M-IIa), the “cleavage of the substrate … (a2M-IIa)” value is “Cleavage”. Further, the “cleavage of the substrate, (c) Factor Xa” value on factor Xa is “No”. In the data set with mice (160 μg/kg rivaroxaban alone), the “time for saphenous vein injury to stop bleeding” value is around 2 min. In addition, the “effect on a2M-IIa cleavage of substrate” value with a2M-IIa (substance in plasma of mice fed Pradaxa or Xarelto) is recorded as “had no effect”. Moreover, the “effect on a2M-Xa cleavage of substrate” value at a2M-Xa [4] is “blocked”. Moreover, in [2], the “time to peak plasma concentration” value was “approximately 3 hours” and the oral bioavailability entry is “more than 80%”. The “food effect on absorption from the gastrointestinal tract” value in data set [2] (in vivo) is “food does not affect absorption”. For the same molecule, the “excreted by the kidneys” value in data set [2] (orally ingested) is on record as “Sixty-six”. For the same molecule, the terminal half-life result in [2] (steady state, patients >75 years old) is listed as “up to 12 hours”. In addition, in [3], the “blood cell and plasma protein binding” value was 95-98%. The recovery in data set [5] is given as 1.6%. In addition, at a2M-Xa [1] (FIG. 2, buffer pH 7.4, 5 minutes incubation, 0.5 mM Pefachrome FXa), the “effect on substrate cleavage by purified a2M-Xa” value was “blocked substrate cleavage”. Moreover, the “cleavage of the substrate, (d) a2M-Xa” value on a2M-Xa [1] is reported as “No”.
Consider heparin, for which, at thrombin, the “cleavage of the substrate, (a) Thrombin” value is reported as “No”. At a2M-thrombin (a2M-IIa), the “cleavage of the substrate … (a2M-IIa)” value is reported as “Cleavage”. The “cleavage of the substrate, (c) Factor Xa” value at factor Xa is on record as “No”. On a2M-Xa [1], the “cleavage of the substrate, (d) a2M-Xa” value is listed as “Cleavage”.
Consider low molecular weight heparin, for which the “cleavage of the substrate, (a) Thrombin” value on thrombin is listed as “Cleavage”. In addition, on a2M-thrombin (a2M-IIa), the “cleavage of the substrate … (a2M-IIa)” value is on record as “Cleavage”. Further, the “cleavage of the substrate, (c) Factor Xa” value on factor Xa was “No”. Also, at a2M-Xa [1], the “cleavage of the substrate, (d) a2M-Xa” value is “Cleavage”.
